From a compilation of properties of binary mixtures (doi:10.1039/c7cp04078d)

Assay: xn = mol fraction of the nth substance listed
Settings: 303.15 K, 100 kPa

Row | Structure (SMILES) | viscosity (x2 = 0) | viscosity (x2 = 0.1) | viscosity (x2 = 0.2) | viscosity (x2 = 0.33) | viscosity (x2 = 0.5) | viscosity (x2 = 0.67) | viscosity (x2 = 0.8) | viscosity (x2 = 0.9)
1 | CC(=O)[O-].CCCC[N+](CCCC)(CCCC)CCCC + CC(=O)O | 680 mPa·s | 460 mPa·s | 297 mPa·s | 169 mPa·s | 83 mPa·s | 41 mPa·s | 25 mPa·s | 19 mPa·s
2 | CC(=O)[O-].CCCC[N+](CCCC)(CCCC)CCCC + CCCCN | 680 mPa·s | 390 mPa·s | – | 78 mPa·s | 28 mPa·s | 16 mPa·s | 11 mPa·s | 9 mPa·s
